Values after ≈ are worked out from the molar mass of the structure shown.
What was measured:
[1] = Equilibrium solubility of 4-iodo-3-nitrobenzamide, overnight at 25° C., measured by HPLC; type: physicochemical; settings: for solubility: 25 °C, thermodynamic from solid
Method: Excess 4-iodo-3-nitrobenzamide (“BA”) was equilibrated overnight (>16 hr) at 25° C. in purified water, 0.01M HCl (pH2), 0.01M NaOH ([…]), and 0.9% NaCl. Following dilution, the solubility of the drug was measured by HPLC.
Excess 4-iodo-3-nitrobenzamide was equilibrated overnight (>16 hr) at 25° C. in solutions of purified water containing various concentrations of cyclodextrins including hydroxypropyl-β-cyclodextrin (Kleptose® from Roquette) (HPBCD), sulfobutyl ether-β-cyclodextrin (Captisol® from Cyclex) (SBEBCD), and Hyroxypropyl-γ-cyclodextrin (Cavamax W8® from Wacker) (HPGCD). Following dilution, the solubility of the drug was measured by HPLC.
Excess 4-iodo-3-nitrobenzamide was equilibrated overnight (>16 hr) at 25° C. in purified water containing various concentrations of the surfactants: polyethylene sorbitan monooleate (Polysorbate 80), polyoxyethylene sorbitan monolaurate (Polysorbate 20), Cremophor EL (BASF), Cremophor RH40 (BASF), Poloxamer 118, and Solutol HS-15 (BASF). Following dilution, the solubility of the drug was measured by HPLC.
Excess 4-iodo-3-nitrobenzamide was equilibrated overnight (>16 hr) at 25° C. in solutions of purified water containing various co-solvents including ethanol, glycofurol, glycerin formal, benzyl alcohol, N,N, dimethylacetamide (DMA), polyethylene glycol (PEG) 400, and propylene glycol. Following dilution, the solubility of the drug was measured by HPLC.
Excess 4-iodo-3-nitrobenzamide was equilibrated overnight (>16 hr) at 25° C. in solutions in purified water containing mixtures of solubilizers. Following dilution, the solubility of the drug was measured by HPLC.

[2] = Saturated solubility of BA in solvents, 25° C., absorbance at 320 nm; type: physicochemical; settings: thermodynamic from solid

solubility ([1]; 100% ethanol, organic solvent or mixture, Ethanol 100%, 25° C., read-out: Solubility): 14.1 mg/mL (≈ 48.1 mM)
solubility ([1]; 100% glycerin formal, organic solvent or mixture, Glycerin Formal 100%, 25° C., read-out: Solubility): 15.1 mg/mL (≈ 51.8 mM)
solubility ([1]; 100% glycofurol, organic solvent or mixture, Glycofurol 100%, 25° C., read-out: Solubility): 15 mg/mL (≈ 51.3 mM)
Enhancement ([1]; Benzyl alcohol 100%): 85.3
Enhancement ([1]; Cremophor EL 10%): 19.2
Enhancement ([1]; Cremophor RH40 10%): 18.5
Enhancement ([1]; DMA 5%): 7.6
Enhancement ([1]; DMA 100%): 392.6
Enhancement ([1]; Ethanol 50%): 31.4
Enhancement ([1]; Ethanol 100%): 77.2
Enhancement ([1]; Glycerin Formal 50%): 19.0
Enhancement ([1]; Glycerin Formal 100%): 83.2
Enhancement ([1]; Glycofurol 50%): 54.1
Enhancement ([1]; Glycofurol 100%): 82.3
Enhancement ([1]; HPBCD 10%, vs no solubilizer): 26.7
Enhancement ([1]; HPBCD 20%, vs no solubilizer): 54.8
Enhancement ([1]; HPBCD 25%, vs no solubilizer): 63.0
Enhancement ([1]; HPBCD 40%, vs no solubilizer): 70.2
Enhancement ([1]; HPGCD 25%, vs no solubilizer): 1.5
Enhancement ([1]; PEG 400 50%): 42.1
Enhancement ([1]; Poloxamer 118 10%): 2.4
Enhancement ([1]; Polysorbate 20 10%): 20.1
Enhancement ([1]; Polysorbate 20 100%): 59.6
Enhancement ([1]; Polysorbate 80 10%): 17.2
Enhancement ([1]; Polysorbate 80 100%): 92.8
Enhancement ([1]; Propylene glycol 50%): 12.3
Enhancement ([1]; SBEBCD 25%, vs no solubilizer): 60.6
Enhancement ([1]; Solubilizer None 0%): 1.0
Enhancement ([1]; Solutol HS 15 25%): 36.0
Enhancement ([1]; Solutol HS 15 30%): 41.0
solubility ([1]; purified water containing mixtures of solubilizers, aqueous with cosolvent or surfactant or cyclodextrin, 5% Polysorbate 80/10% EtOH/40% PEG 400, 25° C., read-out: Solubility): 1.23 mg/mL (≈ 4.21 mM)
solubility ([1]; purified water containing mixtures of solubilizers, aqueous with cosolvent or surfactant or cyclodextrin, 10% EtOH/10% Polysorbate 80, 25° C., read-out: Solubility): 2.3 mg/mL (≈ 7.88 mM)
solubility ([1]; purified water containing mixtures of solubilizers, aqueous with cosolvent or surfactant or cyclodextrin, 10% EtOH/40% PEG 400, 25° C., read-out: Solubility): 3.42 mg/mL (≈ 11.7 mM)
solubility ([1]; purified water containing mixtures of solubilizers, aqueous with cosolvent or surfactant or cyclodextrin, 10% EtOH/40% PEG 400,/5% Benzyl Alcohol, 25° C., read-out: Solubility): 3.11 mg/mL (≈ 10.7 mM)
solubility ([1]; purified water containing mixtures of solubilizers, aqueous with cosolvent or surfactant or cyclodextrin, 10% glycofurol, 40% PEG 400, 25° C., read-out: Solubility): 6.12 mg/mL (≈ 21 mM)
solubility ([1]; purified water, water, Purified Water, 25° C., read-out: Solubility): 0.182 mg/mL (≈ 0.623 mM)
solubility ([1]; water without solubilizer, water, water, no solubilizer, summary of Table 1, read-out: Solubility in water without any solubilizer): ≤ 0.2 mg/mL
solubility ([2]; 35% v/v DMA in Capmul PG-8, 25 °C, oil or lipid, 35% v/v DMA in Capmul PG-8, read from the graph of FIG. 2, read-out: Saturated solubility): ~220 mg/mL (≈ 753 mM)
solubility ([2]; solvent (liquid filled capsule vehicle), 25 °C, oil or lipid, 10% v/v DMA in Capmul, 25° C., read-out: BA Solubility): 57 mg/mL (≈ 195 mM)
solubility ([2]; solvent (liquid filled capsule vehicle), 25 °C, oil or lipid, 20% v/v DMA in Capmul, 25° C., read-out: BA Solubility): 89 mg/mL (≈ 305 mM)
solubility ([2]; solvent (liquid filled capsule vehicle), 25 °C, oil or lipid, 30% v/v DMA in Capmul, 25° C., read-out: BA Solubility): 176 mg/mL (≈ 603 mM)
solubility ([2]; solvent (liquid filled capsule vehicle), 25 °C, oil or lipid, 40% DMA in Capmul, 25° C., read-out: BA Solubility): 276 mg/mL (≈ 945 mM)
solubility ([2]; solvent (liquid filled capsule vehicle), 25 °C, oil or lipid, 40% v/v Transcutol in Capmul, 25° C., read-out: BA Solubility): 73 mg/mL (≈ 250 mM)
solubility ([2]; solvent (liquid filled capsule vehicle), 25 °C, oil or lipid, 100% Capmul, 25° C., read-out: BA Solubility): 32 mg/mL (≈ 110 mM)
solubility ([2]; solvent (liquid filled capsule vehicle), 25 °C, oil or lipid, 100% Labrafil, 25° C., read-out: BA Solubility): 18 mg/mL (≈ 61.6 mM)
solubility ([2]; solvent (liquid filled capsule vehicle), 25 °C, organic solvent or mixture, 20% v/v glycerol, 3% v/v water in PEG 400, 25° C., read-out: BA Solubility): 192 mg/mL (≈ 657 mM)
solubility ([2]; solvent (liquid filled capsule vehicle), 25 °C, organic solvent or mixture, 25% w/v Solutol in PEG 400, 25° C., read-out: BA Solubility): 224 mg/mL (≈ 767 mM)
solubility ([2]; solvent (liquid filled capsule vehicle), 25 °C, organic solvent or mixture, 25% w/v Vit E TPGS in PEG 400, 25° C., read-out: BA Solubility): 204 mg/mL (≈ 699 mM)
solubility ([2]; solvent (liquid filled capsule vehicle), 25 °C, organic solvent or mixture, 100% NMP, 25° C., read-out: BA Solubility): 319 mg/mL (≈ 1090 mM)
solubility ([2]; solvent (liquid filled capsule vehicle), 25 °C, organic solvent or mixture, 100% PEG 400, 25° C., read-out: BA Solubility): 186 mg/mL (≈ 637 mM)
solubility ([2]; solvent (liquid filled capsule vehicle), 25 °C, organic solvent or mixture, 100% Transcutol, 25° C., read-out: BA Solubility): 192 mg/mL (≈ 657 mM)
Compound: NC(=O)c1ccc(I)c([N+](=O)[O-])c1 [BA, 4-iodo-3-nitrobenzamide]
